According to BindingDB's records for doi:10.1007/s00044-011-9583-7 (n/a, 2012):

Test: Inhibition of rat intestinal alpha-glucosidase using para-nitrophenyl-alpha-D-glucopyranoside as substrate incubated for 5 min prior to substrate addition measured after 5 min by spectrophotometric analysis

Compound	IC50 [µM]
O=C(/C=C/c1ccccc1)c1cc2ccoc2cc1O	14.5
O=C(/C=C/c1ccc(O)c(O)c1)c1cc2ccoc2cc1O	18.9
O=C(/C=C/c1ccc(O)c(O)c1)c1ccc2occc2c1O	15.2
COc1ccc(/C=C/C(=O)c2ccc3occc3c2O)c(OC)c1OC	17.3

Now those with a lower IC50, led by results:

IC50 [µM]	Compound
13.4	COc1cc(OC)c(OC)cc1/C=C/C(=O)c1cc2ccoc2cc1O
9.2	COc1ccc(/C=C/C(=O)c2ccc3occc3c2O)cc1
5	COc1ccc(/C=C/C(=O)c2ccc3occc3c2O)cc1OC
10.9	O=C(/C=C/c1ccc(O)cc1)c1ccc2occc2c1O
10.8	COc1ccc(/C=C/C(=O)c2cc3ccoc3cc2O)cc1OC
